Some test systems named below: Acinetobacter baumannii; Escherichia coli 170; Escherichia coli 4530; Salmonella typhimurium; Escherichia coli BL21AI.
Experiment in all cases: ≥ marks a high value that may be exact or a test limit, other limits are often not marked, values filed in µg/mL are converted to µM
For assay [1], the system named is Bacillus subtilis IFO 3143.
Assay [2] concerns Bacillus subtilis KCTC 3068.
Assay [3] relates to Escherichia coli IFO 12734.
Assay [4] relates to Escherichia coli KCTC 1682.
Assay [5] has as its system Pseudomonas aeruginosa IFO 12582.
In assay [6] the test system is Pseudomonas aeruginosa KCTC 1637.
In assay [7] the test system is Salmonella typhimurium KCTC 1926.
Assay [8] deals with Staphylococcus aureus IFO 12732.
Assay [9] concerns Staphylococcus aureus KCTC 1621.
In assay [10] the test system is Staphylococcus epidermidis KCTC 1917.
Assay [11] has as its system Acinetobacter baumannii NM109.
Assay [12] has as its system Acinetobacter baumannii NM124.
The test system of assay [13] is Acinetobacter baumannii NM35.
For assay [14], the system named is Acinetobacter baumannii NM75.
Assay [15] has as its system Acinetobacter baumannii NM8.
Assay [16] relates to Candida albicans ATCC 90028.
The subject of assay [17] is Enterococcus faecalis ATCC 29212.
Assay [18] relates to Escherichia coli ATCC 25726.
The test system of assay [19] is Klebsiella pneumoniae ATCC 700603.
Assay [20] relates to Pseudomonas aeruginosa ATCC 27853.
Assay [21] concerns Staphylococcus aureus 127/08.
For assay [22], the system named is Staphylococcus aureus 145/08.
Assay [23] relates to Staphylococcus aureus 274/08.
Assay [24] relates to Staphylococcus aureus ATCC 25923.
The test system of assay [25] is Staphylococcus aureus S908.
Assay [26] concerns Staphylococcus aureus T4/6.
In assay [27] the test system is Staphylococcus aureus V4180.
Assay [28] deals with Staphylococcus epidermidis RP62A/1.
Assay [29] relates to Staphylococcus epidermidis RP62A.
Assay [30] concerns Staphylococcus epidermidis T37/8.
Assay [31] relates to Staphylococcus epidermidis T6/19.
The subject of assay [32] is Stenotrophomonas maltophilia B32/1.
The subject of assay [33] is Stenotrophomonas maltophilia B32/4.
Assay [34] concerns Stenotrophomonas maltophilia B5/5.
Assay [35] concerns Stenotrophomonas maltophilia B6/2.
Assay [36] has as its system Stenotrophomonas maltophilia U8908.
Assay [37] has as its system Enterobacter cloacae 2524.
The subject of assay [38] is Enterobacter cloacae 6780.
Assay [39] has as its system Escherichia coli ATCC 25922.
The test system of assay [40] is Klebsiella pneumoniae 1625.
The test system of assay [41] is Klebsiella pneumoniae 913.
Assay [42] deals with Pseudomonas aeruginosa 4677.
The test system of assay [43] is Streptococcus pneumoniae ATCC 49619.
In assay [44] the test system is Escherichia coli DSM 10233.
The subject of assay [45] is Klebsiella pneumoniae DSM 681.
Assay [46] has as its system Micrococcus luteus ATCC 10240.

In brackets after ≈: the same amount, converted by molar mass.

`CC(C)C[C@H](NC(=O)[C@H](Cc1ccc(O)cc1)NC(=O)[C@H](Cc1cnc[nH]1)NC(=O)[C@@H](NC(=O)[C@H](CC(C)C)NC(=O)[C@H](C)NC(=O)[C@H](C)NC(=O)[C@H](CCCCN)NC(=O)[C@H](C)NC(=O)[C@@H](NC(=O)[C@H](Cc1cnc[nH]1)NC(=O)[C@H](CCCCN)NC(=O)[C@H](C)NC(=O)[C@@H](NC(=O)[C@H](Cc1cnc[nH]1)NC(=O)[C@H](C)NC(=O)[C@H](C)NC(=O)[C@H](CCCCN)NC(=O)[C@H](CCCCN)NC(=O)[C@H](Cc1ccccc1)NC(=O)[C@H](Cc1ccccc1)NC(=O)[C@H](CO)NC(=O)CNC(=O)[C@H](Cc1c[nH]c2ccccc12)NC(=O)CN)C(C)C)C(C)C)[C@@H](C)O)C(=O)O` [GWGSFFKKAAHVAKHVAKAALTHYL]: the MIC in assay [1] came to 0.365 µM (≈ 1 µg/mL); in [2] it was 4 µM (≈ 11 µg/mL); in assay [3] it was 0.73 µM (≈ 2 µg/mL); in [4] it was 1 µM (≈ 2.74 µg/mL); in [5] it was 1.46 µM (≈ 4 µg/mL); in [6], 1 µM (≈ 2.74 µg/mL). Besides, the minimal inhibitory concentration (MIC) turned out to be 1 µM (≈ 2.74 µg/mL) in assay [7], 1.46 µM (≈ 4 µg/mL) in assay [8], 0.5 µM (≈ 1.37 µg/mL) in [9] and 0.5 µM (≈ 1.37 µg/mL) in assay [10].

Consider `CC[C@H](C)[C@H](NC(=O)[C@H](C)NC(=O)[C@H](CCCCN)NC(=O)CNC(=O)[C@@H](NC(=O)[C@H](Cc1cnc[nH]1)NC(=O)CNC(=O)[C@H](CC(C)C)NC(=O)[C@H](CC(C)C)NC(=O)[C@@H](NC(=O)CNC(=O)[C@@H](NC(=O)[C@H](CC(C)C)NC(=O)CN)C(C)C)[C@@H](C)O)[C@@H](C)CC)C(=O)N[C@@H](CC(C)C)C(=O)NCC(=O)O` [GLVGTLLGHIGKAILG], for which the minimum inhibitory concentration (MIC) in assay [11], in assay [12], in assay [13], in [14], in assay [15] and in [16] was at least 250 µM throughout. The minimal inhibitory concentration (MIC) is 250 µM (≈ 380 µg/mL) in assay [17]; at least 250 µM in assay [18]; above 250 µM in assay [19]; above 250 µM in assay [20]; at least 125 µM in [21]; at least 250 µM in assay [22]. In addition, the minimum inhibitory concentration (MIC) was at least 250 µM in assay [23]; 125 µM (≈ 190 µg/mL) in assay [24]; at least 125 µM in [25]; at least 250 µM in assay [26]; at least 250 µM in assay [27]; at least 125 µM in assay [28]. The MIC was at least 125 µM in assay [29]; at least 250 µM in assay [30]; at least 125 µM in assay [31]; at least 250 µM in [32]; at least 250 µM in assay [33]; at least 250 µM in assay [34]. For the same compound, the MIC in assay [35] and in [36] was at least 250 µM in each case.

As for `CC[C@H](C)[C@H](NC(=O)CN)C(=O)N[C@@H](CC(C)C)C(=O)N[C@@H](CC(N)=O)C(=O)N[C@H](C(=O)N[C@H](C(=O)N[C@@H](CCCCN)C(=O)N[C@@H](CO)C(=O)N[C@H](C(=O)N[C@@H](C)C(=O)N[C@@H](CO)C(=O)N[C@@H](CCCCN)C(=O)N[C@@H](CC(C)C)C(=O)N[C@@H](CCCCN)C(=O)N[C@@H](CCCN=C(N)N)C(=O)N[C@@H](CCCCN)C(=O)N[C@@H](C)C(=O)N[C@@H](CCCCN)C(=O)O)[C@@H](C)CC)[C@@H](C)CC)[C@@H](C)O` [GILNTIKSIASKLKRKAK], the minimum inhibitory concentration (MIC) with Acinetobacter baumannii was 2.21 µM (≈ 4.35 µg/mL); in assay [37], at least 50 µM; in assay [38] it was 3.12 µM (≈ 6.14 µg/mL); against Escherichia coli 170 it was 1.56 µM (≈ 3.07 µg/mL); in the assay with Escherichia coli 4530 it was at least 50 µM; in assay [39], 1.56 µM (≈ 3.07 µg/mL). Further, the MIC is 3.12 µM (≈ 6.14 µg/mL) in [40]; 6.25 µM (≈ 12.3 µg/mL) in assay [41]; at least 50 µM in assay [42]; 4.38 µM (≈ 8.63 µg/mL) in the assay with Salmonella typhimurium; at least 50 µM in assay [43].

As to `CC[C@H](C)[C@H](NC(=O)[C@@H]1CCCN1C(=O)[C@H](CCCN=C(N)N)NC(=O)[C@@H]1CCCN1C(=O)[C@H](Cc1cnc[nH]1)NC(=O)[C@H](CO)NC(=O)[C@@H](NC(=O)[C@@H]1CCCN1C(=O)[C@H](CCCN=C(N)N)NC(=O)[C@@H]1CCCN1C(=O)[C@@H](NC(=O)[C@H](Cc1ccc(O)cc1)NC(=O)[C@@H]1CCCN1C(=O)[C@H](CCCN=C(N)N)NC(=O)[C@@H]1CCCN1C(=O)[C@H](CCCCN)NC(=O)CN)[C@@H](C)O)[C@@H](C)O)C(=O)N[C@@H](CCCN=C(N)N)C(=O)N[C@H](C(=O)O)C(C)C` [GKPRPYTPRPTSHPRPIRV], the MIC in the assay on Escherichia coli BL21AI turned out to be 3.62 µM (≈ 8 µg/mL); in assay [44] it was 0.904 µM (≈ 2 µg/mL); in assay [45] it was 3.62 µM (≈ 8 µg/mL); in assay [46], 0.904 µM (≈ 2 µg/mL).

As usually defined, the MIC is the lowest concentration that inhibits growth of the organism. A low value points to greater potency.

The values are drawn from DBAASP.
